How the values were obtained:
[1] = system: Trichomonas vaginalis Ito; test: Antitrichomonas activity test using mice; assay type: in vivo, Trichomonas vaginalis Ito in SLC-ICR strain male mice
From the text: Test Compounds: SF-1540-A' (substance SF-1540 treated with methanol). Control--Flagyl (MNZ, available from Shionogi Seiyaku K.K., Japan)=Metronidazol--1'-(2'-Hydroxyethyl)-2'-methyl-5'-nitroimidazole [drawing 1]
1. Test protozoa strain: Trichomonas vaginalis Ito
2. Host animals: SLC-ICR strain male mice of average body weight of 20 g. and 5-week age, each group consisting of 5 animals.
3. Inoculation of protozoa: Protozoa were inoculated to Bacto-Kupferberg Trichomonas base (Difco; 20% calf serum added), cultivation was conducted at 37° C. for 24 hours, propagated protozoa were collected and centrifuged at 1500 r.p.m. for 5 minutes and then washed twice with centrifugation in sterilized Locke-Ringer's solution. The supernatant was discarded and the residue was diluted with sterilized Ringer's solution so as to have a protozoal number of 500×10^4 ml. Each 0.2 ml. portion (the protozoal number of 100×10^4) was inoculated to mice at subcutaneous sites of the back thereof wherein fur was previously removed.
4. Preparation of test samples: Each test compound was asceptically weighed, finely-divided in a sterilized mortar and then suspended in a 1% CMC solution to form suspensions of given concentrations.
5. Dose and administration: The SF-1540-A' was used at 3 dose levels: 50 mg./kg. (1 mg./0.2 ml./mouse/day), 25 mg./kg. (0.5 mg./0.2 ml./mouse/day) and 12.5 mg./kg. (0.25 mg./0.2 ml./mouse/day), while Flagyl as control was used at 2 dose levels: 25 mg./kg. (0.5 mg./0.2 ml./mouse/day) and 12.5 mg./kg. (0.25 mg./0.2 ml./mouse/day). After 24 hours from protozoa inoculation, the SF-1540-A' was given subcutaneously and Flagyl orally once a day for 6 days (Total, 6 times). As control, each 0.2 ml. portion of a 1% CMC solution was subcutaneously administered.
Formation of an abscess at a subcutaneous site of the back of a host animal was visually detectable for its protuberance after 48 hours from the protozoa inoculation.
Size of abscess was measured when sacrificed and cultivated to confirm effectiveness of the test compound after 24 hours from the 6 administrations.

[2] = system: rice blast pathogenic fungus (Pyricularia oryzae); assay type: in vivo; conditions: 5 ppm

| SMILES | difference from 1% CMC group (Tukey) ([1]; 12.5 mg./kg. orally) | difference from 1% CMC group (Tukey) ([1]; 25 mg./kg. orally) | abscess, visual observation ([1]; 25 mg./kg. orally once a day, after 3 administrations) | abscess at sacrifice, 24 hours after 6 administrations ([1]; mouse, in vivo, po) | bulge upon sacrifice ([1]; mouse, in vivo, po) | Preventive & curative value [2] [%] | Average number of diseased spots per leaf ([2]; after 5 days) |
| --- | --- | --- | --- | --- | --- | --- | --- |
| Cc1ncc([N+](=O)[O-])n1CCO [Flagyl, 1'-(2'-Hydroxyethyl)-2'-methyl-5'-nitroimidazole] | significant at the 5% level of significance | significant at the 1% level of significance | a remarkable reduction in abscess | abscess disappeared | only a slight bulge | – | – |
| CN(CCC(N)CC(=O)NC1C=CC(n2ccc(N)nc2=O)OC1C(=O)O)C(=N)N (stereo not shown) [Blasticidin S] | – | – | – | – | – | 85 | 3.6 |

— patent publication US4181715A (priority 1975, dated 1980)
